# Data reported in BindingDB's records for PubMed 1586393 (U. 109, 1992).
# Biological target: D(3) dopamine receptor (Homo sapiens, UniProt P35462)
# Sequence (P35462 as listed by the source): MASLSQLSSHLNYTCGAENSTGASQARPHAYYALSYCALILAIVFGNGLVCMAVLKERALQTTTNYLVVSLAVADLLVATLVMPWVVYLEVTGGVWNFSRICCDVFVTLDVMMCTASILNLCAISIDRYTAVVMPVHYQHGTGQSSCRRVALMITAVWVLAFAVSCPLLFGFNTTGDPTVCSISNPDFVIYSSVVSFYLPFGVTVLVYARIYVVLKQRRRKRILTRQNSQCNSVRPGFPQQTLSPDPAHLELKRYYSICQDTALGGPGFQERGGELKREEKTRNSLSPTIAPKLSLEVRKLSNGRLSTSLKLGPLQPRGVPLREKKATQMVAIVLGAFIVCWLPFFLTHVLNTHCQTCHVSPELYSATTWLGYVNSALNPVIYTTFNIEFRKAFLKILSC
row,Ki,SMILES
1,15 nM,NC(=O)C1(N2CCCCC2)CCN(CCCN2c3ccccc3CCc3ccccc32)CC1 [CAS_5942-95-0]
2,0.28 nM,CN(C)S(=O)(=O)c1ccc2c(c1)N(CCCN1CCC(CCO)CC1)c1ccccc1S2 [CAS_39860-99-6]
3,34 nM,Nc1nc2c(ncn2[C@@H]2O[C@H](COP(=O)(O)OP(=O)(O)NP(=O)(O)O)[C@@H](O)[C@H]2O)c(=O)[nH]1 [Guanylyl imidodiphosphate]
4,1.2 nM,CN1CCN(CCCN2c3ccccc3Sc3ccc(S(=O)(=O)N(C)C)cc32)CC1 [NSC_92178]
5,1.3 nM,CCS(=O)(=O)c1cc(C(=O)NCC2CCCN2CC2CC2)c(OC)cc1I (configuration not stated) [NSC_122245]

row,SMILES,Ki
1,CCCN[C@@H]1CCc2c(OC)cccc2[C@@H]1C [CAS_85379-09-5],139 nM
2,CCCN(CCC)C1C=Cc2c(OC)cccc2C1C (configuration not stated) [CAS_5311190],11 nM
